“And” between values parts separate entries of the source, which are not always exact repeats. Equal values may be shown once. Read-outs that look alike come from different tables or passages of the source.
Tests used:
holo-RBP-TTR interaction = holo-RBP-TTR interaction (Homo sapiens, UniProt P02766); test: Effect on holo-RBP-TTR interaction in human serum (cross-linking, Western blot); details: human serum, quantified from gel image, replicates (Supp Fig.14b)
[1] = target: T1, kappa opioid receptor (rat) (Rattus norvegicus, UniProt P34975); test: Rat kappa-opioid receptor (agonist radioligand [3H] U 69593) binding assay; details: for % Inhibition of Control Specific Binding: kappa-opioid receptor binding, replicates 1st/2nd
T1 construct: Eurofins Cerep (France)

TTR in human serum = TTR in human serum (Homo sapiens, UniProt P02766); test: TTR serum fluorescent probe exclusion (FPE) selectivity assay; assay type: binding; details: ligand 10 µM; for %FPE probe fluorescence: human serum, replicates
in vivo [2] = details: male, Sprague Dawley, rat, sc
[3] = for Concentration: subcutaneous 15.9 μmole/kg, individual animals
purified human TTR = purified human TTR (Homo sapiens, UniProt P02766); test: Fluorescence polarization (FP) binding assay, ligands to TTR in buffer
male Sprague-Dawley rats [4] = test: Gastrointestinal (GI) transit (charcoal meal) assays; assay type: in vivo, rat; details: rat, in vivo
male Sprague-Dawley rats [5] = details: rat, in vivo
[6] = target: T2, delta-opioid receptor (human) (Homo sapiens, UniProt P41143); test: Human delta-opioid receptor (agonist radioligand [3H]-DADLE) binding assay; details: for % Inhibition of Control Specific Binding: delta-opioid receptor binding, replicates 1st/2nd
T2 construct: Eurofins Cerep (France)

[7] = target: human mu-opioid receptors (Homo sapiens, UniProt P35372); test: biochemical; assay type: binding; details: binding affinity to mu-opioid receptor (Ki)
in vivo [8] = details: male, Sprague Dawley, rat, sc; remark: listed apart in the source

T2 sequence (P41143 whole entry): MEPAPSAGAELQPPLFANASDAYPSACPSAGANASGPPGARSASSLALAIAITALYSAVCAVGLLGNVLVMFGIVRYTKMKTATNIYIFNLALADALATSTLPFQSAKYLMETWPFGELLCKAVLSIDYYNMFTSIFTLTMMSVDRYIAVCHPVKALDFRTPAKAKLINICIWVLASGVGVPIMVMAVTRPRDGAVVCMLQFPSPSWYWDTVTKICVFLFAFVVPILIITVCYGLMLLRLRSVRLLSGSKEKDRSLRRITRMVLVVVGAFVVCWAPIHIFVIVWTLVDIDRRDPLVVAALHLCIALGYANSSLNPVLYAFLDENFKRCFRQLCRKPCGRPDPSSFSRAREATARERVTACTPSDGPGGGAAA
T1 sequence (P34975 whole entry): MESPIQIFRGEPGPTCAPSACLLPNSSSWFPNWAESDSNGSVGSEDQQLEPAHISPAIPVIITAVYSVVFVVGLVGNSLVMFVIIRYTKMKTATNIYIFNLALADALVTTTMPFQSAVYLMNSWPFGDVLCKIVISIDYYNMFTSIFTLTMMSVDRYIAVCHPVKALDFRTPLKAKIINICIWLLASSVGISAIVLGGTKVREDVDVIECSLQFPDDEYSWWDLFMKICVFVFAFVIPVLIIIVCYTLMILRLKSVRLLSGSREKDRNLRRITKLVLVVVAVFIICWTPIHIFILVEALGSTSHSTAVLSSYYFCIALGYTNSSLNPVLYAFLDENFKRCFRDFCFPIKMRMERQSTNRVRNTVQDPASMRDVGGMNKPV
Sequence of human mu-opioid receptors (P35372 whole entry): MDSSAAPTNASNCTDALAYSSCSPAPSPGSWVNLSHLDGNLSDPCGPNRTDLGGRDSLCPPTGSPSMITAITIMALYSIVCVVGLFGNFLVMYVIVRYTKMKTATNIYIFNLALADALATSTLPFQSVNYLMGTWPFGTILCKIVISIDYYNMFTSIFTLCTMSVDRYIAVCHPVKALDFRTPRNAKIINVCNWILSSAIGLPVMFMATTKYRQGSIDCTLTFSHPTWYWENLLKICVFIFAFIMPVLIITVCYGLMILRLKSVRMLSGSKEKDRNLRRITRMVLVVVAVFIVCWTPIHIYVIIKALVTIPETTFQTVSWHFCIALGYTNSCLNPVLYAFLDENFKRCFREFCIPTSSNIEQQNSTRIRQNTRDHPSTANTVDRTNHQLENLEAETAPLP

NC(Cc1cc(I)c(Oc2cc(I)c(O)c(I)c2)c(I)c1)C(=O)O (centres unmarked) [Thyroxine]
%holo RBP binding to TTR (holo-RBP-TTR interaction): 7.1% and 6.9% and 6%

COc1ccc2c3c1O[C@H]1[C@@H](OCc4cn(CCNCCCCCCOc5cc(OCCCc6c(C)n[nH]c6C)cc(C(=O)O)c5)nn4)CC[C@@]4(O)[C@@H](C2)N(C)CC[C@]314 [AG10-L2-Oxy]
Ki ([1]; [3H] U 69593 displacement, read-out: binding affinity to kappa-opioid receptor (Ki)): 120 nM | % Inhibition of Control Specific Binding ([1]; 1.0E-06 M): 78.6% and 74.5% | % Inhibition of Control Specific Binding ([1]; 1.0E-07 M): 32.2% and 33.7% | % Inhibition of Control Specific Binding ([1]; 1.0E-08 M): 1.0% and 5.5% | % Inhibition of Control Specific Binding ([1]; 1.0E-09 M): -3.9% and 9.9% | % Inhibition of Control Specific Binding ([1]; 2.0E-06 M): 85.0% and 84.1% | % TTR occupancy in human serum (TTR in human serum; FPE probe 3.6 µM, 3 h reading relative to probe alone, text mean ± s.d., table replicates): 66.15% and 66.78% and 69.04% and 66.00% | %FPE probe fluorescence (TTR in human serum; time 0.000 h): 0.000% | %FPE probe fluorescence (TTR in human serum; time 0.083 h): 0.549% and 0.762% and -1.844% and -1.645% | %FPE probe fluorescence (TTR in human serum; time 0.250 h): 0.706% and 1.255% and -0.116% and -0.642% | %FPE probe fluorescence (TTR in human serum; time 0.500 h): 2.826% and 3.272% and 3.466% and 3.115% | %FPE probe fluorescence (TTR in human serum; time 1.000 h): 4.537% and 7.078% and 8.406% and 7.892% | %FPE probe fluorescence (TTR in human serum; time 1.250 h): 9.016% and 10.868% and 10.718% and 11.974% | %FPE probe fluorescence (TTR in human serum; time 1.500 h): 11.997% and 15.126% and 11.024% and 13.206% | %FPE probe fluorescence (TTR in human serum; time 1.750 h): 15.076% and 17.659% and 14.693% and 18.815% | %FPE probe fluorescence (TTR in human serum; time 2.000 h): 19.358% and 21.045% and 18.427% and 21.877% | %FPE probe fluorescence (TTR in human serum; time 2.250 h): 25.163% and 23.487% and 22.045% and 24.539% | %FPE probe fluorescence (TTR in human serum; time 2.500 h): 25.806% and 27.529% and 26.249% and 27.302% | %FPE probe fluorescence (TTR in human serum; time 2.750 h): 30.929% and 30.377% and 27.371% and 30.854% | %FPE probe fluorescence (TTR in human serum; time 3.000 h): 33.853% and 33.219% and 30.957% and 33.996% | %FPE probe fluorescence (TTR in human serum; time 3.500 h): 39.372% and 39.356% and 37.472% and 40.606% | %FPE probe fluorescence (TTR in human serum; time 3.750 h): 41.871% and 41.320% and 39.536% and 41.800% | %FPE probe fluorescence (TTR in human serum; time 4.000 h): 43.406% and 44.388% and 42.775% and 45.047% | %FPE probe fluorescence (TTR in human serum; time 4.250 h): 46.096% and 46.093% and 44.165% and 46.692% | %FPE probe fluorescence (TTR in human serum; time 4.500 h): 48.403% and 48.011% and 46.251% and 48.352% | %FPE probe fluorescence (TTR in human serum; time 4.750 h): 49.977% and 52.633% and 49.006% and 51.062% | %FPE probe fluorescence (TTR in human serum; time 5.000 h): 52.730% and 52.156% and 49.883% and 52.401% | %FPE probe fluorescence (TTR in human serum; time 5.250 h): 54.499% and 55.931% and 51.647% and 54.573% | %FPE probe fluorescence (TTR in human serum; time 5.500 h): 56.002% and 55.963% and 54.625% and 55.846% | %FPE probe fluorescence (TTR in human serum; time 5.750 h): 57.400% and 57.044% and 54.205% and 59.081% | %FPE probe fluorescence (TTR in human serum; time 6.000 h): 57.353% and 57.260% and 55.092% and 59.796% | concentration at 0.03 h (in vivo [2]; 15.9 μmole/kg, Concentration, subcutaneous 15.9 μmole/kg, time 0.03 h, individual animals): 1340 nM | concentration at 0.5 h (in vivo [2]; 15.9 μmole/kg, Concentration, subcutaneous 15.9 μmole/kg, time 0.5 h, individual animals): 4740 nM | concentration at 0.75 h (in vivo [2]; 15.9 μmole/kg, Concentration, subcutaneous 15.9 μmole/kg, time 0.75 h, individual animals): 4800 nM | concentration at 1 h (in vivo [2]; 15.9 μmole/kg, Concentration, subcutaneous 15.9 μmole/kg, time 1 h, individual animals): 6680 nM | concentration at 2 h (in vivo [2]; 15.9 μmole/kg, Concentration, subcutaneous 15.9 μmole/kg, time 2 h, individual animals): 7090 nM | concentration at 4 h (in vivo [2]; 15.9 μmole/kg, Concentration, subcutaneous 15.9 μmole/kg, time 4 h, individual animals): 2750 nM | concentration at 8 h (in vivo [2]; 15.9 μmole/kg, Concentration, subcutaneous 15.9 μmole/kg, time 8 h, individual animals): 196 nM | concentration at 24 h (in vivo [2]; 15.9 μmole/kg, Concentration, subcutaneous 15.9 μmole/kg, time 24 h, individual animals): 18.7 nM | AUC(0-inf) (in vivo [2]; 16 umol/kg): 25.8 ± 3.09 µM·h | CL/F (in vivo [2]; 16 umol/kg): 10.3 mL/min/kg | Vd/F (in vivo [2]; 16 umol/kg): 4.22 ± 0.86 L/kg | half-life (in vivo [2]; 16 umol/kg): 4.68 ± 0.52 h | k ([3]; rat, single SC dose 16 µmol/kg): 0.15 ± 0.02 h⁻¹ | Concentration ([3]; time 0.03 h): 1980.92 nM and 1419.06 nM and 1694.61 nM | Concentration ([3]; time 0.5 h): 6994.54 nM and 3873.66 nM and 4264.25 nM | Concentration ([3]; time 0.75 h): 6976.39 nM and 5017.1 nM and 7890.95 nM | Concentration ([3]; time 1 h): 6606.43 nM and 5966.57 nM and 8438.91 nM | Concentration ([3]; time 2 h): 5069.67 nM and 5721.19 nM and 8480.16 nM | Concentration ([3]; time 4 h): 2353.83 nM and 3068.56 nM and 2535.48 nM | Concentration ([3]; time 6 h): 732.498 nM and 360.453 nM and 640.073 nM and 668.521 nM | Concentration ([3]; time 8 h): 132.069 nM and 207.97 nM and 223.861 nM | Concentration ([3]; time 12 h): 78.9419 nM and 35.0657 nM and 62.9969 nM and 75.6407 nM | Concentration ([3]; time 24 h): 12.92 nM and 13.41 nM and 14.17 nM | % Fluorescence polarization (mean) (purified human TTR; log [nM] inhibitor 0.990): 100.000% | % Fluorescence polarization (mean) (purified human TTR; log [nM] inhibitor 1.291): 102.820% | % Fluorescence polarization (mean) (purified human TTR; log [nM] inhibitor 1.592): 102.360% | % Fluorescence polarization (mean) (purified human TTR; log [nM] inhibitor 1.893): 99.420% | % Fluorescence polarization (mean) (purified human TTR; log [nM] inhibitor 2.194): 100.060% | % Fluorescence polarization (mean) (purified human TTR; log [nM] inhibitor 2.495): 94.250% | % Fluorescence polarization (mean) (purified human TTR; log [nM] inhibitor 2.796): 77.990% | % Fluorescence polarization (mean) (purified human TTR; log [nM] inhibitor 3.097): 63.730% | % Fluorescence polarization (mean) (purified human TTR; log [nM] inhibitor 3.398): 48.160% | % Fluorescence polarization (mean) (purified human TTR; log [nM] inhibitor 3.699): 35.010% | % Fluorescence polarization (mean) (purified human TTR; log [nM] inhibitor 4.000): 21.890% | % Fluorescence polarization (mean) (purified human TTR; log [nM] inhibitor […]): 0.000% | GI transit (% of vehicle) (male Sprague-Dawley rats [4]): 9.5 ± 2.8% | GI transit as % of vehicle group (male Sprague-Dawley rats [4]): 9.19% and 12.07% and 6.37% and 7.14% and 12.52% | GI transit (% of vehicle) (male Sprague-Dawley rats [4]; sc): 89.5 ± 3.0% | GI transit as % of vehicle group (male Sprague-Dawley rats [4]; sc): 86.23% and 92.53% and 87.21% and 92.83% and 88.77% | hot plate latency (male Sprague-Dawley rats [5]): 54.2 ± 4.8 s | hot plate latency (male Sprague-Dawley rats [5]; sc): 9.5 ± 0.8 s | Ki ([6]; [3H]-DADLE displacement, read-out: binding affinity to delta-opioid receptor (Ki)): 410 nM | % Inhibition of Control Specific Binding ([6]; 1.0E-06 M): 50.5% and 49.9% | % Inhibition of Control Specific Binding ([6]; 1.0E-07 M): 14.8% and 19.2% | % Inhibition of Control Specific Binding ([6]; 1.0E-08 M): 1.2% and -2.9% | % Inhibition of Control Specific Binding ([6]; 1.0E-09 M): -6.1% and -3.7% | % Inhibition of Control Specific Binding ([6]; 2.0E-06 M): 65.5% and 63.4% | Ki [7]: 13 nM | Kp (in vivo [8]; percentage CSF to plasma ratio): 0 | Kp (in vivo [8]; percentage brain to plasma ratio): 0

NC(N)=O [Urea]
%holo RBP binding to TTR (holo-RBP-TTR interaction): 98.7% and 127% and 74.3%

From paper PMC9226319, “Peripherally restricted transthyretin-based delivery system for probes and therapeutics avoiding opioid-related side effects” (Nature Communications, 2022)
